{"source": "ChEMBL document CHEMBL3400014", "about": "“Cytotoxic acyl amides from the soil fungus Gymnascella dankaliensis” (Bioorg Med Chem, 2015)", "test_system": "L5178Y", "test": "Cytotoxicity against mouse L5178Y cells by MTT assay", "format": "functional, cell-based", "note": "pIC50: −log10 of the molar value. Active and inactive are the calls of the source. No cut-off for these calls is given here."}
{"smiles": "CC(/C=C/C(N)=O)=C\\[C@H](C)CC(=O)O", "values": [{"measurement": "Activity", "value": "inactive"}]}
{"smiles": "CCCCCC[C@@H](C)/C=C(C)/C=C/C(=O)N[C@H]1C[C@]2(OC1O)[C@@H]1O[C@@H]1C(O)(CC(C)=O)[C@@H]1O[C@@H]12", "note": "(some centres not stated)", "values": [{"measurement": "Activity", "value": "inactive"}]}
{"smiles": "CCCCCC[C@@H](C)/C=C(C)/C=C/C(=O)N[C@H]1C[C@]2(O[C@H]1OC)[C@@H]1O[C@@H]1C(=O)[C@@H]1O[C@@H]12", "values": [{"measurement": "pIC50", "value": 6.36}]}
{"smiles": "CCCCCC[C@@H](C)/C=C(C)/C=C/C(=O)N[C@H]1CC2(C=C(Cl)C(=O)C(Cl)=C2)OC1O", "note": "(some centres not stated)", "values": [{"measurement": "pIC50", "value": 6.19}]}
{"smiles": "CC(/C=C/C(=O)NC(Cc1ccc(O)cc1)C(=O)O)=C\\[C@H](C)CCCCCC(=O)O", "note": "(mixture of isomers)", "values": [{"measurement": "Activity", "value": "inactive"}]}
{"smiles": "CCCCCC[C@@H](C)/C=C(C)/C=C/C(=O)N[C@H]1C[C@]2(OC1O)[C@@H]1O[C@@H]1C(O)[C@@H]1O[C@@H]12", "note": "(some centres not stated)", "values": [{"measurement": "Activity", "value": "inactive"}]}
{"smiles": "CC(/C=C/C(=O)NC(Cc1ccc(O)cc1)C(=O)O)=C\\[C@H](C)CCCCCCO", "note": "(mixture of isomers)", "values": [{"measurement": "Activity", "value": "inactive"}]}
{"smiles": "CC(/C=C/C(=O)NC(Cc1ccc(O)cc1)C(=O)O)=C\\[C@H](C)CC(=O)O", "note": "(mixture of isomers)", "values": [{"measurement": "Activity", "value": "inactive"}]}
{"smiles": "CCCCCC[C@@H](C)/C=C(C)/C=C/C(=O)N[C@H]1C[C@]2(C=C(Cl)C(=O)[C@H](Cl)[C@H]2O)O[C@H]1OC", "values": [{"measurement": "pIC50", "value": 5.24}]}
{"smiles": "CCCCCC[C@@H](C)/C=C(C)/C=C/C(N)=O", "values": [{"measurement": "Activity", "value": "inactive"}]}
{"smiles": "CC(/C=C/C(=O)NC(CO)Cc1ccc(O)cc1)=C\\C(C)CC(=O)O", "note": "(mixture of isomers)", "values": [{"measurement": "Activity", "value": "inactive"}]}
{"smiles": "CCCCCC[C@@H](C)/C=C(C)/C=C/C(=O)N[C@H]1C[C@]2(OC1O)[C@@H]1O[C@@H]1C(=O)[C@@H]1O[C@@H]12", "note": "(some centres not stated)", "values": [{"measurement": "pIC50", "value": 6.24}]}
